According to patent US20250368646A1, “TRICYCLIC FUSED WRN INHIBITORS” (Nimbus Wadjet, Inc., priority 2024, published 2025):

What was measured:
[1] = tested on: p21 induction in HCT 116 cells; experiment: p21 induction in cells (in-cell western, p21/GAPDH ratio); type: cell-based; details: Homo sapiens; HCT 116 colon carcinoma cell line, 24 h compound incubation; percent activation vs internal reference WRN inhibitor; read-out: P21_EC50
Method: The colon carcinoma cell line HCT 116 was obtained from ATCC and cultured in growth medium consisting of Mccoy's 5A Medium (Gibco 16600108) supplemented with […] (Transgene FS201-02) and 100 units/mL penicillin-streptomycin (Gibco 15140122) and maintained at 37° C. under […]. On the day of seeding, 2,000 cells in 30 μL of culture media were plated per well to Poly-D-Lysine 384 Well Black Clear Plates (Biocoat 356663) and incubated overnight at 37° C. under 5% CO2. The following day, compounds were serially diluted in DMSO for a total of 11 test concentrations. The typical starting concentration of cpds was 10 μM with 2-fold dilutions. Next, 150 nL of diluted compound was added in duplicate to the assay plate, using an Echo 655 (Labcyte). The plate was centrifuged at 500 RPM for 1 min and then incubated at 37° C. under 5% CO2 for 24 h. After 24 h, medium was removed, and cells were fixed by adding 40 µL of 4% paraformaldehyde solution to each well and incubated for 20 min at room temperature. The plate was then washed 4 times with 100 μL per well of wash buffer (PBS with 0.1% Tween-20) using a microplate washer. Next, 30 μL of ice-cold methanol was added to each well and the plate was incubated at −20° C. for 10 min. The plate was washed 4 times with 100 μL per well of wash buffer by a microplate washer, then 30 μL per well of blocking buffer (Intercept PBS blocking buffer (LI-COR 927-70001) with 0.05% Tween-20) was added and the plate was incubated at room temperature with shaking for 2 h. Next, to each test well, 20 μL of primary antibody solution (p21 Waf1/CIP (12D1) Rabbit mAb (Cell Signaling Technologies 2947) diluted 1:1000 and GAPDH (D4C6R) Mouse mAb (Cell Signaling Technologies 97166) diluted 1:2000 in blocking buffer) was added and the plate was placed at 4° C., overnight. The following day, the plate was washed 5 times with 100 μL per well of wash buffer using a microplate washer for 5 min. 20 μL per well of secondary antibody (IRDye 680CW Goat anti-Mouse IgG (H+L) (LI-COR 926-68070) diluted 1: 2000 in Blocking Buffer and IRDye 800CW Goat anti-Rabbit IgG (H+L) (LI-COR 926-32211) diluted 1: 2000 in Blocking Buffer) was then added and the plate was stored for 2 h in the dark at room temperature with shaking. The plate was then washed 4 times with 100 μL per well of wash buffer again using a microplate washer. Finally, the p21 signal and the GAPDH signal were quantified using a LI-COR Odyssey CLx Imager machine reading at 800 nm and 700 nm, respectively. Each plate contained DMSO control (low control) and an internal reference WRN inhibitor (high control) respectively. For quantitation, the 800 nm/700 nm ratio was calculated for each well to give fold p21 induction and then percent activation for each compound well was calculated as follows (100×(ratio cpd well-ratio low control)/(ratio high control−ratio low control)). EC50 values for each compound were generated after non-linear regression curve fitting using commercially available software.

[2] = biological target: T1, human Werner helicase (WRN-BV08, amino acids 517-1235 with L1074F point mutation) (Homo sapiens, UniProt Q14191, L1074F); experiment: ADP-Glo WRN helicase ATPase inhibition assay; type: biochemical; details: 0.15 nM WRN, 5 μM ATP, 0.1 nM DNA duplex; 15 minutes preincubation, 60 minutes at 25° C.; read-out: ADP-Glo_hWRN_IC50
T1 construct: [pFastBac1-WRN-(517-1235 L1074F)-TEV-8His]; 8xHis (C, cleaved yes); TEV cleavage site (ENLYFQG) (C); made in house; host or cells: Sf9 insect cells (baculovirus, pFastBac)
Excerpt: Bovine skin gelatin (BSG), dimethyl sulfoxide (DMSO), Pluronic F-127 and tris(2-carboxyethyl)phosphine hydrochloride solution (TCEP) were purchased from Sigma-Aldrich (St. Louis, MO) at the highest level of purity possible. Bicine buffer solution was purchased from Alfa Aesar (Tewksbury, MA) and compound NSC-617145 was purchased from Tocris (Minneapolis, MN). DNA duplex was synthesized at BGI (Shenzhen, China) and was composed of strand 1 with the sequence 5′-[…]-3′ (SEQ ID NO.: 1) and strand 2 with the sequence 5′-[…]-3′ (SEQ ID NO.: 2). DNA strands were annealed by heating to 95° C. for 5 minutes followed by slow cooling to room temperature. Compounds in 100% DMSO (0.1 μl) were spotted into a 384-well white polystyrene Optiplate-384 (Perkin Elmer; Waltham, MA) assay plate using a LabCyte Echo 550 (Agilent; Santa Clara, CA). DMSO (0.1 μl) was added to columns 12, rows A-H and column 24, rows I-P for the maximum signal control. Compound NSC-617145 (0.1 μl) was added to columns 12, rows I-P and 24, rows A-H for the minimum signal control (100% inhibition). Compounds/DMSO were preincubated for 15 minutes at 25° C. with 5 μl 2×WRN (BV08), prepared as described below, in assay buffer containing 20 mM Bicine (pH=7.5), 1 mM MgCl2, 10 mM KCl, 0.1% Pluronic F-127, 0.005% BSG, 1 mM TCEP. The reaction was initiated by the addition of 5 μl 2× substrate mixture in assay buffer and incubated for 60 minutes at 25° C. The final concentrations of the assay components were 0.15 nM WRN, 5 μM ATP, and 0.1 nM DNA duplex. The final DMSO concentration was 1% and the reference compound concentration (NSC-617145) used for the minimal signal control was 20 μM. The reaction was stopped by the addition of the ADP-Glo Kit components (Promega; Madison, WI) as directed and the relative luminescence units (RLU) were read on an Envision 2104 (Perkin Elmer; Waltham, MA). % inhibition calculation:
Where RLU=relative luminescence units, sample=signal in sample well, and MIN and MAX are the respective minimum and maximum signal controls.
Four-Parameter IC50 Fit Equation:
Where top and bottom are normally allowed to float but may be fixed at 100 or 0 respectively in a 3-parameter fit. Y is the % inhibition and X is the compound concentration.
Molecular Biology and virus production. The DNA encoding human Werner helicase (Uniprot Q14191, amino acids 517-1235 with L1074F point mutation) was generated with codon-optimization for E. coli expression and subcloned into the pFastBac vector with a TEV cleavable 8×His tag (SEQ ID NO: 5) (WRN-BV08). The baculovirus from the expression plasmid WRN-BV08 was generated from transfection and amplification following the manufacturer's instructions.
Sf9 cells grown in SF900II media were infected with 1:200 WRN-BV08 P2 virus and incubated for protein expression for 72 h at 27° C. The WRN protein was purified using the following protocol. The cell pellets were thawed and resuspended in buffer A (50 mM Tris, pH 7.5, 500 mM NaCl, 1 mM TCEP, 10% Glycerol) supplemented with 0.5% CHAPS, 1 mM PMSF, […] Leupeptin, 1 μg/ml Pepstatin, and the Pierce Universal Nuclease and cocktail tablet. Cleared lysates were loaded onto a Ni Sepharose™ excel column and washed with buffer A and bound protein was eluted with buffer A supplemented with 300 mM imidazole. The eluted protein was dialyzed against buffer A and digested by His-tagged TEV (1:5 ratio) overnight at 4° C. ZnCl2 was added into the sample at final 15 μM before loading onto a second Ni Sepharose™ excel column. Untagged WRN protein was eluted from the column with buffer A supplemented with 20 mM imidazole, dialyzed overnight into buffer B (50 mM Tris, pH 7.5, 1 mM TCEP, 10% Glycerol) supplemented with 150 mM NaCl and loaded onto a Heparin column. Proteins were eluted with a step gradient of buffer B supplemented with 150 mM, 200 mM, 300 mM and 500 mM NaCl. […]

T1 sequence (Q14191 with tags, fused parts or gaps L1074F): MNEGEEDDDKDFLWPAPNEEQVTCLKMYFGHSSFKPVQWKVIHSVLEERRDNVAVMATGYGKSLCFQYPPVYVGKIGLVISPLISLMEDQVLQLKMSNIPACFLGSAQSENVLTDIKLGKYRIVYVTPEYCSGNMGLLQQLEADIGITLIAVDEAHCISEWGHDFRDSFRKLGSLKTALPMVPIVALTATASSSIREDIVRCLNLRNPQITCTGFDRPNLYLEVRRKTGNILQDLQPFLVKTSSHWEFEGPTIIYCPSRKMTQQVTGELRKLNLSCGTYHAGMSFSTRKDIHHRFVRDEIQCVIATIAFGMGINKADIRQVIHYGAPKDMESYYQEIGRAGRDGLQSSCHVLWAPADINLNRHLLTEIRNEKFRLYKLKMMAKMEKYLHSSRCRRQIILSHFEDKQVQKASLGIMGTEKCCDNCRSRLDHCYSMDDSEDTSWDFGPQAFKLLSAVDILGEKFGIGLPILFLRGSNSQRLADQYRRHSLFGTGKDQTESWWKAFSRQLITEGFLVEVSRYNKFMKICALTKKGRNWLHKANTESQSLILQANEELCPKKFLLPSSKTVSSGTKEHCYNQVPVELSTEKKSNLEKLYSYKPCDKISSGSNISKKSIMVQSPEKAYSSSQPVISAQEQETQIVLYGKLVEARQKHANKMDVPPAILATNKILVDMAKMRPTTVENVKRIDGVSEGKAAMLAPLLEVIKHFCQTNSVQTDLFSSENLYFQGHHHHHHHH

SMILES	EC50 [1] [nM]	IC50 [2] [nM]
Cc1cnc2c(n1)c(=O)c(N1CCN(C(=O)c3ncnc(C)c3O)[C@H]3CC[C@@H]31)c1n2[C@H](C(=O)Nc2ccc(C(F)(F)F)cc2Cl)C[C@H]1C (single isomer, unassigned) [Compound I-11]	≤ 500	≤ 5
Cc1cnc2c(n1)c(=O)c(N1CCN(C(=O)c3ncnc(C)c3O)[C@H]3CC[C@@H]31)c1n2[C@@H](C(=O)Nc2ccc(C(F)(F)F)cc2Cl)C[C@@H]1C (single isomer, unassigned) [Compound I-12]	> 5000	> 500
COc1cc(-n2nc3c(=O)c(N4CCN(C(=O)c5ncnc(C)c5O)[C@H]5CC[C@@H]54)c4n(c3n2)[C@@H](C(=O)Nc2ccc(C(F)(F)F)cc2Cl)C[C@@H]4C)ccn1 (single isomer, unassigned) [Compound I-14]	≤ 500	5 to 50
COc1cc(-n2nc3c(=O)c(N4CCN(C(=O)c5ncnc(C)c5O)[C@H]5CC[C@@H]54)c4n(c3n2)[C@@H](C(=O)Nc2ccc(C(F)(F)F)cc2F)C[C@@H]4C)ccn1 (single isomer, unassigned) [Compound I-15]	≤ 500	≤ 5
COc1cc(-n2nc3c(=O)c(N4CCN(C(=O)c5ncnc(C)c5O)[C@H]5CC[C@@H]54)c4n(c3n2)[C@H](C(=O)Nc2ccc(C(F)(F)F)cc2F)C[C@H]4C)ccn1 (single isomer, unassigned) [Compound I-16]	500 to 2000	100 to 500
Cc1nc2c(=O)c(N3CCN(C(=O)c4ncnc(C)c4O)[C@H]4CC[C@@H]43)c3n(c2nc1C)[C@@H](C(=O)Nc1ccc(C(F)(F)F)cc1Cl)C[C@@H]3C (single isomer, unassigned) [Compound I-17]	≤ 500	≤ 5
Cc1nc2c(=O)c(N3CCN(C(=O)c4ncnc(C)c4O)[C@H]4CC[C@@H]43)c3n(c2nc1C)[C@H](C(=O)Nc1ccc(C(F)(F)F)cc1Cl)C[C@@H]3C (single isomer, unassigned) [Compound I-18]	≤ 500	≤ 5
Cc1nc2c(=O)c(N3CCN(C(=O)c4ncnc(C)c4O)[C@H]4CC[C@@H]43)c3n(c2nc1C)[C@@H](C(=O)Nc1ccc(C(F)(F)F)cc1Cl)C[C@H]3C (single isomer, unassigned) [Compound I-19]	500 to 2000	50 to 100
Cc1nc2c(=O)c(N3CCN(C(=O)c4ncnc(C)c4O)[C@H]4CC[C@@H]43)c3n(c2nc1C)[C@H](C(=O)Nc1ccc(C(F)(F)F)cc1Cl)C[C@H]3C (single isomer, unassigned) [Compound I-20]	> 5000	> 500
Cc1ncnc(C(=O)N2CCN(c3c4n(c5nn(C6CC6)nc5c3=O)[C@@H](C(=O)Nc3ccc(C(F)(F)F)cc3Cl)C[C@H]4C)[C@H]3CC[C@@H]32)c1O (single isomer, unassigned) [Compound I-21]	≤ 500	≤ 5
Cc1ncnc(C(=O)N2CCN(c3c4n(c5nn(C6CC6)nc5c3=O)[C@H](C(=O)Nc3ccc(C(F)(F)F)cc3Cl)C[C@@H]4C)[C@H]3CC[C@@H]32)c1O (single isomer, unassigned) [Compound I-22]	> 5000	100 to 500
Cc1ncnc(C(=O)N2CCN(c3c4n(c5nn(C6=CCOCC6)nc5c3=O)[C@@H](C(=O)Nc3ccc(C(F)(F)F)cc3Cl)C[C@H]4C)[C@H]3CC[C@@H]32)c1O (single isomer, unassigned) [Compound I-23]	≤ 500	≤ 5
Cc1ncnc(C(=O)N2CCN(c3c4n(c5nn(C6=CCOCC6)nc5c3=O)[C@H](C(=O)Nc3ccc(C(F)(F)F)cc3Cl)C[C@@H]4C)[C@H]3CC[C@@H]32)c1O (single isomer, unassigned) [Compound I-24]	> 5000	> 500
Cc1ncnc(C(=O)N2CCN(c3c4n(c5nn(C6=CCOCC6)nc5c3=O)[C@H](C(=O)Nc3ccc(C(F)(F)F)cc3Cl)C[C@H]4C)[C@H]3CC[C@@H]32)c1O (single isomer, unassigned) [Compound I-25]	> 5000	> 500
